According to US8013170B2, “Substituted pyrrolo[1,2-d][1,4]-diazonines and treatment of brain damage” (priority 2003, dated 2011):
Entries after “also recorded” stand apart in the source; their conditions may differ. Where two headings read alike, the source gives them in different places.

Tests used:
cerebellar explants = test: Cerebellar microexplants exposed to glutamate and 3-nitropropionic acid; live neurons with neurites counted; format: cell-based, rat; settings: for numbers of cells having neurites: administered simultaneously with glutamate (1 mM) and 3-nitropropionic acid (0.5 mM), final concentrations 1-100 nM, postnatal day 8 Wistar rat cerebellar microexplants; for recovery from / prevention of glutamate-induced neurotoxicity: compound applied simultaneously, 1-100 nM
Method: To determine the effects of the compounds of the invention on neuronal cells in vitro, a series of studies was carried out using cerebellar explants from […]. In vitro systems are suitable for studying neuronal proliferation, neurite growth, formation of nerve bundles and effects of toxins on neural cells, effects that parallel effects observed in vivo. Thus, results of studies using in vitro cerebellar explants are predictive of effects of interventions in vivo.
In a first series of studies, effects of glutamate on cerebellar explants were determined. At physiological concentrations, glutamate is a neurotransmitter in the CNS of mammals, including humans. However, at sufficiently high concentrations, glutamate is neurotoxic, resulting in neuronal cell death. Because glutamate is a naturally occurring neurotransmitter in the CNS of mammals, including humans, and because glutamate neurotoxicity is recognized in the art as reflective of neurotoxicity in general, and including cell death and degeneration, it is a valuable tool useful for identifying and characterizing agents effective in treatment of neurodegeneration and neural cell death.
Cover slips were placed into a large Petri dish and washed in 70% alcohol for 5 minutes, then washed with Millipore H2O. The cover slips were air dried, and coated with Poly-D-Lysine (1 mg/ml stock solution in PBS, 90-100 μl) for 2 hours at 34° C.
Postnatal day 8 Wistar rats were used for the study. The rats were sacrificed and placed in ice for 1 minute, decapitated and the cerebellum removed and placed on ice. Cerebellum tissue was placed in 1 ml of 0.65% glucose-supplemented PBS (10 μl 65% stock D (+)glucose/1 ml PBS) in a large Petri dish, chopped up into smaller sections and triturated with a 1 ml insulin syringe via a 23 G (0.4 mm) needle, and then squirted back into the glucose solution in the large Petri dish. The tissue was sieved through (125 μm pore size gauze) and centrifuged (2 minutes at 60 g) twice to exchange the medium into serum-free BSA-supplemented START V medium (Biochrom, Germany). The second centrifugation step was done with 1 ml of START V medium. The microexplants were reconstituted into 500 μl of START V medium and put on ice.
Two hours after PDL-coating, the slides were washed with Millipore H2O and air dried. Each slide was placed into a small Petri dish (diameter: 35 mm) and 40 μl of START V/cell suspension was added. The tissue was incubated for 2 hours at 34° C. (settlement period). START V-medium (1 ml) was then added to the Petri dish and cultivated at 34° C. in the presence of 5% CO2 in air at 100% humidity for 48 hours.
For the study, certain explant cultures were exposed to vehicle (PBS) only. In the first study (Study 1) 10 μl of toxin 1 (L-glutamate-100 mM in Millipore water; final concentration: 1 mM) and 10 μl of toxin 2 (3-nitropropionic acid-50 mM- pH 7- in Millipore water, final concentration: 0.5 mM) was applied simultaneously with the compounds to be tested (10 mM stock solution prepared in PBS and diluted to final concentrations between 1-100 nM). […]
Neurons in the explants were then evaluated for morphology (presence of neurites) and counted as live cells per microscopic field. Four fields displaying highest cell density were counted per cover slip and the data presented as mean±standard error of the mean (SEM); n=4 each. Statistical significance was evaluated by using the non-paired Student's t-test.

[1] = system: rats exposed to hypoxic-ischemic injury (HI); test: Hypoxic-ischemic injury (modified Levine model), histological tissue damage score; format: in vivo, rat; settings: 100 pM icv, 20 μl over 20 minutes, 2 hours after hypoxic-ischemic insult; histology 5 days after injury; adult male Wistar rats; compared to vehicle treated group, p<0.001
Method: To determine whether compounds of the invention might prevent neuronal injury in response to stroke, cardiac arterial bypass graft surgery (CABG) or other hypoxic insults, a series of studies were carried out in rats that had been exposed to hypoxic-ischemic injury (HI). Adult rats (Wistar, 280-310 g, male) were used. The modified Levine model preparation and experimental procedures were used (Rice et al, 1981, Ann. Neurol.: 9: 131-141; Guan et al J., 1993, Cereb. Blood Flow Metab.: 13(4): 609-16). These procedures in brief, consist of an HI injury induced by unilateral carotid artery ligation followed by inhalational asphyxia in the animals with an implanted lateral ventricular cannula. A guide cannula was stereotaxically placed on the top of the dura 1.5 mm to the right of the mid-line and 7.5 mm anterior to the interaural zero plane under halothane anaesthesia. […]
Coronal sections 8 μm in thickness were cut from the striatum, cerebral cortex and hippocampus and were stained with thionin and acid fuchsin. The histological outcome was assessed at three levels: (1) the mid level of the striatum, (2) where the completed hippocampus first appeared and (3) the level where the ventral horn of the hippocampus just appears. The severity of tissue damage was scored in the striatum, cortex and the CA1-2, CA3, CA4 and dentate gyrus of the hippocampus. […]

[2] = rcm bond

N[C@H]1CCCC[C@@H]2CC[C@@H](C(=O)N[C@@H](CCC(=O)O)C(=O)O)N2C1=O.O=C(O)C(F)(F)F [compound 48, (2S, 3′S, 8′R, 11′S) 2-{[(3′-Amino-1′-aza-2′-oxobicyclo[6.3.0]-undecyl)-11′-carbonyl]amino}-1,5-pentanedioic acid trifluoroacetate salt]
numbers of cells having neurites (cerebellar explants): significantly increased the numbers of cells having neurites in a dose-dependent manner
recovery from / prevention of glutamate-induced neurotoxicity (cerebellar explants; glutamate 1 mM, trifluoroacetate salt): significant recovery; also recorded: prevented glutamate-induced neurotoxicity

N[C@@H](CCC(=O)O)C(=O)O [Glutamate, L-glutamate, reference compound]
loss of cerebellar neurons having neurites (cerebellar explants; glutamate 1 mM, compared to vehicle-treated controls): ~80%

O=C(O)C(F)(F)F.O=C(O)CC[C@H](NC(=O)[C@@H]1CC[C@@H]2CCCCNCC(=O)N21)C(=O)O [compound 68, (2S, 9′S, 12′S)-2-{[(1′,4′-Diaza-2′-oxobicyclo[7.3.0]dodecyl)-12′-carbonyl]amino}-1,5-pentanedioic acid trifluoroacetate]
tissue damage (damage score) in striatum, cortex and hippocampus [1]: significantly reduced the tissue damage in each brain region examined
numbers of cells having neurites (cerebellar explants): significantly increased the numbers of cells having neurites in a dose-dependent manner
recovery from / prevention of glutamate-induced neurotoxicity (cerebellar explants; glutamate 1 mM): significant recovery; also recorded: prevented glutamate-induced neurotoxicity

CC(C)(C)OC(=O)[C@@H]1CC[C@H]2CC=CCN(C(=O)OCc3ccccc3)CC(=O)N21
ring closure, yield of all isomers ([2]; from C=CC[C@@H]1CC[C@@H](C(=O)OC(C)(C)C)N1C(=O)CN(CC=C)C(=O)OCc1ccccc1, bis(tricyclohexylphosphine)benzylidineruthenium dichloride (Grubbs I), dichloromethane, 4.1 mM, 40.0 °C, 48.0 h): 42%

O=C(O)[C@@H]1CCCCNCC(=O)N2CCC[C@H]2C(=O)N[C@H](C(=O)O)C1
ring closure, yield of all isomers ([2]; from C=CC[C@H](C[C@H](NC(=O)[C@@H]1CCCN1C(=O)CN(CC=C)C(=O)OCc1ccccc1)C(=O)OCc1ccccc1)C(=O)OCc1ccccc1, Grubbs II generated in situ (bis(tricyclohexylphosphine)benzylideneruthenium dichloride + SIMes.HBF4/KOtBu), benzene, 2.27 mM, 45.0 °C, 65.0 h, 2 steps): 58%

CC(C)(C)OC(=O)[C@@H]1CC[C@@H]2CC=CCN(C(=O)OCc3ccccc3)CC(=O)N21
ring closure, yield of all isomers ([2]; from C=CC[C@H]1CC[C@@H](C(=O)OC(C)(C)C)N1C(=O)CN(CC=C)C(=O)OCc1ccccc1, Grubbs I (bis(tricyclohexylphosphine)benzylideneruthenium dichloride), dichloromethane, 4.03 mM, 40.0 °C, 48.0 h): 46%
